Like-named read-outs stand apart in the source and are kept apart here.
Tests used:
[1] = target: isolated recombinant JAK1 kinase domain (Homo sapiens (Human), UniProt P23458); experiment: JAK1 enzyme assay (Caliper LabChip, Ki); type: biochemical
Experimental: (§1) JAK Enzyme Assays were carried out as follows:
(§2) The activity of the isolated recombinant JAK1 and JAK2 kinase domain was measured by monitoring phosphorylation of a peptide derived from JAK3 (Val-Ala-Leu-Val-Asp-Gly-Tyr-Phe-Arg-Leu-Thr-Thr, fluorescently labeled on the N-terminus with 5-carboxyfluorescein) using the Caliper LabChip® technology (Caliper Life Sciences, Hopkinton, Mass.). […] Reactions were incubated at 22° C. in 384-well polypropylene microtiter plates for 30 minutes and then stopped by addition of 25 μL of an EDTA containing solution (100 mM HEPES buffer (pH 7.2), 0.015% Brij-35, 150 mM EDTA), resulting in a final EDTA concentration of 50 mM. After termination of the kinase reaction, the proportion of phosphorylated product was determined as a fraction of total peptide substrate using the Caliper LabChip® 3000 according to the manufacturer's specifications. Ki values were then determined using the Morrison tight binding model (Morrison, J. F., Biochim. Biophys. Acta. 185:269-296 (1969); William, J. W. and Morrison, J. F., Meth. Enzymol., 63:437-467 (1979)) modified for ATP-competitive inhibition [Ki=Ki,app/(1+[ATP]/Km,app)].

[2] = target: isolated recombinant JAK2 kinase domain (Homo sapiens (Human), UniProt O60674); experiment: JAK2 enzyme assay (Caliper LabChip, Ki); type: biochemical
Sequence of isolated recombinant JAK2 kinase domain (O60674 849-1124): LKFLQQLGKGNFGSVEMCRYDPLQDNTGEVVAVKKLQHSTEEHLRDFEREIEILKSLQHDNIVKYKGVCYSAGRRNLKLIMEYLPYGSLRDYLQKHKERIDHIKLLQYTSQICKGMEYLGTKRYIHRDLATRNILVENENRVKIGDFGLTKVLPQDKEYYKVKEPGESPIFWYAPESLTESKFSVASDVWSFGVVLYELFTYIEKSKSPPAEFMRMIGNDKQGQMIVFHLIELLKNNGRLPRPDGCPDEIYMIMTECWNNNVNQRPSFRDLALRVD
Experimental: as §1
as §2, with “([…]” for “(Val-Ala-Leu-Val-Asp-Gly-Tyr-Phe-Arg-Leu-Thr-Thr,”, “specifications.” for “specifications. Ki values were then determined using the Morrison tight binding model (Morrison, J. F., Biochim. Biophys. Acta. 185:269-296 (1969); William, J. W. and Morrison, J. F., Meth. Enzymol., 63:437-467 (1979)) modified for ATP-competitive inhibition [Ki=Ki,app/(1+[ATP]/Km,app)].”

Sequence of isolated recombinant JAK1 kinase domain (P23458 875-1153): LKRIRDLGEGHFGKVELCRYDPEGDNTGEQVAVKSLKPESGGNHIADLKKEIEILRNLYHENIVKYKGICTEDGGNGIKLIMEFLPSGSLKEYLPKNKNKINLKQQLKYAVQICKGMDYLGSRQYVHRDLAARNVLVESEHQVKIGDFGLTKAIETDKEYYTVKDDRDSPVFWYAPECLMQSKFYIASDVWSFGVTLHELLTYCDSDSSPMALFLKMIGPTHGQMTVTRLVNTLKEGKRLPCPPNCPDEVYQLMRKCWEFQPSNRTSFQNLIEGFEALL

Row | SMILES | Ki [1] | Ki [2] | Ki ([1]; read-out: JAK1 Ki)
1 | N#CC[C@]1(n2cc(C(N)=O)c(NC(=O)C3CC3)n2)CC[C@@H](NC2CC(F)(F)C2)CC1 [Example 173, 1-[1-(cyanomethyl)-4-[(3,3-difluorocyclobutyl)amino]cyclohexyl]-3-(cyclopropanecarbonylamino) pyrazole-4-carboxamide] | 8.7 nM | 71.3 nM | 
2 | N#CCC1(n2cc(C(N)=O)c(NC(=O)C3CC3)n2)CCN(Cc2cnn(-c3ccccc3)c2)CC1 [Example 90] |  | 133 nM | 7.2 nM
3 | N#CC[C@]1(n2cc(C(N)=O)c(NC(=O)C3CC3)n2)CC[C@H](NCc2cccc(F)c2)CC1 [Example 113] | 14.4 nM | 187 nM | 
4 | N#CC[C@]1(n2cc(C(N)=O)c(NC(=O)C3CC3)n2)CC[C@H](NCc2cccc(C#N)c2)CC1 [Example 123] | > 562 nM | > 319 nM | 
5 | N#CCC1(n2cc(C(N)=O)c(NC(=O)[C@H]3C[C@@H]3C3CC3)n2)CCN(CC(F)(F)F)CC1 (stereo in doubt) [Example 177, 1-[4-(cyanomethyl)-1-(2,2,2-trifluoroethyl)-4-piperidyl]-3-[(2-cyclopropylcyclopropanecarbonyl)amino]pyrazole-4-carboxamide] |  | 226 nM | 18.7 nM
6 | N#CCC1(n2cc(C(N)=O)c(NC(=O)[C@H]3C[C@@H]3C(F)(F)F)n2)CCN(CC(F)(F)F)CC1 [Example 27] |  | 781 nM | 102 nM
7 | N#CCC1(n2cc(C(N)=O)c(NC(=O)C3CC3)n2)CCN(Cc2ccc(-c3cccc(C(F)(F)F)c3)cc2)CC1 [Example 150, 1-[4-(cyanomethyl)-1-[[4-[3-(trifluoromethyl)phenyl]phenyl]methyl]-4-piperidyl]-3-(cyclopropanecarbonylamino) pyrazole-4-carboxamide] |  | 208 nM | 15.9 nM
8 | N#CCC1(n2cc(C(N)=O)c(NC(=O)C3CC3)n2)CCN(Cc2ccccc2C(F)(F)F)CC1 [Example 61] |  | 118 nM | 8.3 nM
9 | N#CCC1(n2cc(C(N)=O)c(NC(=O)C3CC3)n2)CCN(C(=O)CC(F)(F)F)CC1 [Example 170, 1-[4-(cyanomethyl)-1-(3,3,3-trifluoropropanoyl)-4-piperidyl]-3-(cyclopropanecarbonylamino) pyrazole-4-carboxamide] |  | 70.9 nM | 6.7 nM
10 | CS(=O)(=O)c1ccc(CN2CCC(CC#N)(n3cc(C(N)=O)c(NC(=O)C4CC4)n3)CC2)cc1 [Example 71] |  | > 319 nM | 34.1 nM
11 | CC(F)(F)C(=O)N1CCC(CC#N)(n2cc(C(N)=O)c(NC(=O)C3CC3)n2)CC1 [Example 171, 1-[4-(cyanomethyl)-1-(2,2-difluoropropanoyl)-4-piperidyl]-3-(cyclopropanecarbonylamino) pyrazole-4-carboxamide] |  | 30.3 nM | 6.6 nM
12 | N#CCC1(n2cc(C(N)=O)c(NC(=O)C3CC3)n2)CCN(Cc2ccc(-c3ccncc3)cc2)CC1 [Example 159, 1-[4-(cyanomethyl)-1-[[4-(4-pyridyl)phenyl]methyl]-4-piperidyl]-3-(cyclopropanecarbonylamino) pyrazole-4-carboxamide] |  | 101 nM | 19 nM
13 | N#CC[C@]1(n2cc(C(N)=O)c(NC(=O)C3CC3)n2)CC[C@H](N2CC(F)C2)CC1 [Example 181, 1-[1-(cyanomethyl)-4-(3-fluoroazetidin-1-yl)cyclohexyl]-3-(cyclopropanecarbonylamino) pyrazole-4-carboxamide] | > 562 nM | > 319 nM | 
14 | N#CCC1(n2cc(C(N)=O)c(NC(=O)C3CC3)n2)CCN(Cc2cccc(CN)c2)CC1 [Example 97] |  | 163 nM | 41 nM
15 | N#CCC1(n2cc(C(N)=O)c(NC(=O)C3CC3)n2)CCN(Cc2cccc(SC(F)(F)F)c2)CC1 [Example 67] |  | > 319 nM | 100 nM
16 | N#CCC1(n2cc(C(N)=O)c(NC(=O)C3CC3)n2)CCN(Cc2ccc(-n3cncn3)cc2)CC1 [Example 86] |  | > 319 nM | 99.7 nM
17 | N#CCC1(n2cc(C(N)=O)c(NC(=O)C3CC3)n2)CCN(Cc2cccc(NS(=O)(=O)C(F)(F)F)c2)CC1 [Example 93] |  | > 319 nM | 72.1 nM

Row | SMILES | Ki [1] | Ki [2] | Ki ([1]; read-out: JAK1 Ki)
18 | N#CC[C@]1(n2cc(C(N)=O)c(NC(=O)C3CC3)n2)CC[C@@H](NCc2ccc(F)cc2)CC1 [Example 116] | 164 nM | > 319 nM | 
19 | CC(=O)Nc1nn(C2(CC#N)CCN(CC(F)(F)F)CC2)cc1C(N)=O [Example 24] |  | 76.7 nM | 35.6 nM
20 | COC1(C(F)(F)F)CN([C@H]2CC[C@](CC#N)(n3cc(C(N)=O)c(NC(=O)C4CC4)n3)CC2)C1 [Example 132] |  | > 319 nM | 217 nM
21 | N#CCC1(n2cc(C(N)=O)c(NC(=O)C3CC3)n2)CCN(Cc2ccc(C(F)(F)F)cc2)CC1 [Example 63] |  | 134 nM | 14.4 nM
22 | N#CCC1(n2cc(C(N)=O)c(NC(=O)[C@@H]3C[C@H]3F)n2)CCN(CC(F)(F)F)CC1 [Example 30] |  | 53.2 nM | 8.6 nM
23 | N#CCC1(n2cc(C(N)=O)c(NC(=O)C3CC3)n2)CCN(Cc2ccc(OC(F)(F)F)cc2)CC1 [Example 49] |  | 190 nM | 23.3 nM
24 | N#CCC1(n2cc(C(N)=O)c(NC(=O)[C@H]3C[C@H]3F)n2)CCN(CC(F)(F)F)CC1 [Example 29] |  | 11.9 nM | 10.1 nM
25 | COc1ccc(CN2CCC(CC#N)(n3cc(C(N)=O)c(NC(=O)C4CC4)n3)CC2)cc1 [Example 43] |  | 170 nM | 25.8 nM
26 | N#CC[C@]1(n2cc(C(N)=O)c(NC(=O)C3CC3)n2)CC[C@H](NC2CCC(F)(F)CC2)CC1 [Example 174, 1-[1-(cyanomethyl)-4-[(4,4-difluorocyclohexyl)amino]cyclohexyl]-3-(cyclopropanecarbonylamino) pyrazole-4-carboxamide] | > 562 nM | > 319 nM | 
27 | N#CC[C@]1(n2cc(C(N)=O)c(NC(=O)C3CC3)n2)CC[C@H](NC2CCOCC2)CC1 [Example 103] | 38 nM | > 319 nM | 
28 | CC1(C)CN([C@H]2CC[C@](CC#N)(n3cc(C(N)=O)c(NC(=O)C4CC4)n3)CC2)C1 [Example 105] | > 562 nM | > 319 nM | 
29 | COC(=O)Nc1nn(C2(CC#N)CCN(CC(F)(F)F)CC2)cc1C(N)=O [Example 4, Methyl (4-carbamoyl-1-(4-(cyanomethyl)-1-(2,2,2-trifluoroethyl)piperidin-4-yl)-1H-pyrazol-3-yl)carbamate] |  | 34.5 nM | 8.2 nM
30 | N#CCC1(n2cc(C(N)=O)c(NC(=O)C3CC3)n2)CCN(C(CO)c2ccccc2)CC1 (centres unmarked) [Example 19, 1-(4-(Cyanomethyl)-1-(2-hydroxy-1-phenylethyl)piperidin-4-yl)-3-(cyclopropanecarboxamido)-1H-pyrazole-4-carboxamide] | 69.3 nM | > 319 nM | 
31 | N#CCC1(n2cc(C(N)=O)c(NC(=O)C3CC3)n2)CCN(C2CCN(C(=O)c3ccnc(C(F)(F)F)c3F)CC2)CC1 [Example 98] |  | 152 nM | 74.6 nM
32 | N#CCC1(n2cc(C(N)=O)c(NC(=O)C3CC3)n2)CCN(Cc2ccc(-c3ccn(C(F)(F)F)n3)cc2)CC1 [Example 83] |  | 313 nM | 16.1 nM
33 | CS(=O)(=O)c1cccc(CN2CCC(CC#N)(n3cc(C(N)=O)c(NC(=O)C4CC4)n3)CC2)c1 [Example 70] |  | > 319 nM | 31 nM
34 | N#CCC1(n2cc(C(N)=O)c(NC(=O)C3CC3(F)F)n2)CCN(CC(F)(F)F)CC1 (centres unmarked) [Example 26] |  | 203 nM | 11.5 nM

— US11731943B2, “Therapeutic compounds, compositions and methods of use thereof” (priority 2016, dated 2023)
